{"source": "patent US11814367B2", "about": "“Inhibitors of glycogen synthase 1 (GYS1) and methods of use thereof” (Maze Therapeutics, Inc., priority 2021, dated 2023)", "key": {"[1]": {"biological_target": "hGYS1 enzyme (recombinant hGYS1/GN1 protein) (Homo sapiens (Human), UniProt P13807)", "sequence (P13807 whole entry)": "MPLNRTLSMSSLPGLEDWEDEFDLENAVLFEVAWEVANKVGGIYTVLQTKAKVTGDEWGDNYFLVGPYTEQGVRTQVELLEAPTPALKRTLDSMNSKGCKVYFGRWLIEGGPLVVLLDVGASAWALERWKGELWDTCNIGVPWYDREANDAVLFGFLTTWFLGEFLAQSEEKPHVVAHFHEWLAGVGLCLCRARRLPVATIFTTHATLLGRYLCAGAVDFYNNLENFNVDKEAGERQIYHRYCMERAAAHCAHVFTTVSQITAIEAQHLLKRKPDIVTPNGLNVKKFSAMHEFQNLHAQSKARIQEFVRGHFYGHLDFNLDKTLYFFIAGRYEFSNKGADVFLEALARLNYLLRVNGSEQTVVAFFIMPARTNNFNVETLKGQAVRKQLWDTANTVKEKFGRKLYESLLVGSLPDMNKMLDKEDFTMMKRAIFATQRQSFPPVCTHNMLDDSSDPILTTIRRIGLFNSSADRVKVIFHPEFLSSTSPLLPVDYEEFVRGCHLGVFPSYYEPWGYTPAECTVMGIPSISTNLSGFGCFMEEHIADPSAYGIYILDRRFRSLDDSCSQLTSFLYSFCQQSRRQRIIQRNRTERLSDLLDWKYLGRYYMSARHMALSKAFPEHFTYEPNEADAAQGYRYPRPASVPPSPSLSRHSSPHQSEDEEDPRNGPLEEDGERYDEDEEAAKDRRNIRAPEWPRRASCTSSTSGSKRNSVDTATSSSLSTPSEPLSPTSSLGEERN", "sequence (P46976 whole entry partner)": "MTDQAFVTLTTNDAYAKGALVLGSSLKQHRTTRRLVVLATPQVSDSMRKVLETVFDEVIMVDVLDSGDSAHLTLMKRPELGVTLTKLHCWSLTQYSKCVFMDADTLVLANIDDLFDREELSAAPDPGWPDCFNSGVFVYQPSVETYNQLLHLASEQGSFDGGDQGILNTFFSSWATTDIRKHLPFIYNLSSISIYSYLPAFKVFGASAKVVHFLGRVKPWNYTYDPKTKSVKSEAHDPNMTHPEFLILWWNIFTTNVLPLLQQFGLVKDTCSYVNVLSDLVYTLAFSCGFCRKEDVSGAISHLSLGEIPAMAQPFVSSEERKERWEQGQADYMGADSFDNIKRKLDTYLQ", "assay": "GYS1 coupled enzyme assay (PK/LDH)", "assay_type": "biochemical", "settings": "hGYS1/GN1 50 nM, UDP-Glucose 0.8 mM, G6P 1 mM; geometric mean of at least 2 runs"}, "[2]": {"biological_target": "hGYS2 enzyme (recombinant hGYS2/GN1 protein) (Homo sapiens (Human), UniProt P54840)", "sequence (P54840 whole entry)": "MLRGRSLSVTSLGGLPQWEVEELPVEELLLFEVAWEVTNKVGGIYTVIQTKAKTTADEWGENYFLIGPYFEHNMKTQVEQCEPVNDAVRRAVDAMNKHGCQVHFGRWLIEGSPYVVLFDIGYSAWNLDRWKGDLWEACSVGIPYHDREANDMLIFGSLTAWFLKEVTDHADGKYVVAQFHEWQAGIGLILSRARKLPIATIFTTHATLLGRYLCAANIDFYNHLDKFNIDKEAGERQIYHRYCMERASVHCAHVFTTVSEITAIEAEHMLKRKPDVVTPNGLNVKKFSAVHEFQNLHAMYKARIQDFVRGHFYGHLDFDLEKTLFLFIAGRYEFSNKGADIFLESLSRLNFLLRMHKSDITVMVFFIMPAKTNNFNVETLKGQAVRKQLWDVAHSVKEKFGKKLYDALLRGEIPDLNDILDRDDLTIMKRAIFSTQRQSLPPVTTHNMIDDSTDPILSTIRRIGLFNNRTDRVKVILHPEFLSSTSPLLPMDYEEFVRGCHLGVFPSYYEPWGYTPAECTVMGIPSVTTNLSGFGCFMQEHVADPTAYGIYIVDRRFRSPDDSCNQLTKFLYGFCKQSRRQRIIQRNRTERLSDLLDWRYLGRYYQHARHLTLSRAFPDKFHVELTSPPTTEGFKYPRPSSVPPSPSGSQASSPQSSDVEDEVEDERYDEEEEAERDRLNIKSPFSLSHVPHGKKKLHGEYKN", "sequence (P46976 whole entry partner)": "as the sequence (P46976 whole entry partner) above", "assay": "GYS2 coupled enzyme assay (PK/LDH)", "assay_type": "biochemical", "settings": "geometric mean of at least 2 assay runs on separate days, read-out: Avg_IC50", "procedure,_shortened": "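hGYS2/GN1 200 nM; UDP-Glc 2 mM; glycogen 0.2%; G6P 2 mM; PEP 2 mM, NADH 0.6 mM, PK/LDH 20 U/mL. 50 mM Tris pH 7.5, MgCl2, KCl, BSA, TCEP, 2.5% DMSO. Kinetic A340, 10 min. IC50 = geomean of ≥2 runs.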"}}, "data": [{"compound": "CC(=O)N1CC2(CC(C(=O)N3C[C@H](F)C[C@H]3C(=O)N[C@@H](c3ccccc3)c3ccc(C(C)C)cc3)=NO2)C1", "note": "[Compound 151, (2S,4R)-1-{2-acetyl-5-oxa-2,6-diazaspiro[3.4]oct-6-ene-7-carbonyl}-4-fluoro-N-[(S)-phenyl[4-(propan-2-yl)phenyl]methyl]pyrrolidine-2-carboxamide]", "values": [{"measurement": "IC50", "setting": "[1]", "value": 241, "unit": "nM"}, {"measurement": "IC50", "setting": "[2]", "value": "> 100", "unit": "µM"}]}, {"compound": "CC(=O)N1CC(C)(CC(=O)N2C[C@H](F)C[C@H]2C(=O)N[C@@H](c2ccccc2)c2ccc(C(C)C)cc2)C1", "note": "[Compound 154, (2S,4R)-1-[2-(1-acetyl-3-methylazetidin-3-yl)acetyl]-4-fluoro-N-[(S)-phenyl[4-(propan-2-yl)phenyl]methyl]pyrrolidine-2-carboxamide]", "values": [{"measurement": "IC50", "setting": "[1]", "value": 285, "unit": "nM"}, {"measurement": "IC50", "setting": "[2]", "value": "> 100", "unit": "µM"}]}, {"compound": "CC(=O)N1CCC[C@@H]1CC(=O)N1C[C@H](F)C[C@H]1C(=O)N[C@@H](c1ccccc1)c1ccc(C(C)C)cc1", "note": "[Compound 155, (2S,4R)-1-{2-[(2R)-1-acetylpyrrolidin-2-yl]acetyl}-4-fluoro-N-[(S)-phenyl[4-(propan-2-yl)phenyl]methyl]pyrrolidine-2-carboxamide]", "values": [{"measurement": "IC50", "setting": "[1]", "value": 206, "unit": "nM"}, {"measurement": "IC50", "setting": "[2]", "value": "> 100", "unit": "µM"}]}, {"compound": "CC(=O)N1CCCO[C@@H](C(=O)N2C[C@H](F)C[C@H]2C(=O)N[C@@H](c2ccccc2)c2ccc(C(C)C)cc2)C1", "note": "[Compound 158, (2S,4R)-1-[(2R)-4-acetyl-1,4-oxazepane-2-carbonyl]-4-fluoro-N-[(S)-phenyl[4-(propan-2-yl)phenyl]methyl]pyrrolidine-2-carboxamide]", "values": [{"measurement": "IC50", "setting": "[1]", "value": 70, "unit": "nM"}, {"measurement": "IC50", "setting": "[2]", "value": "> 100", "unit": "µM"}]}, {"compound": "CC(=O)N1CCN(CC(=O)N2C[C@H](F)C[C@H]2C(=O)N[C@@H](c2ccccc2)c2ccc(C(C)C)cc2)C(=O)C1", "note": "[Compound 160, (2S,4R)-1-[2-(4-acetyl-2-oxopiperazin-1-yl)acetyl]-4-fluoro-N-[(S)-phenyl[4-(propan-2-yl)phenyl]methyl]pyrrolidine-2-carboxamide]", "values": [{"measurement": "IC50", "setting": "[1]", "value": 69, "unit": "nM"}, {"measurement": "IC50", "setting": "[2]", "value": "> 100", "unit": "µM"}]}, {"compound": "CC(=O)N1C[C@H]2C[C@H](C(=O)N3C[C@H](F)C[C@H]3C(=O)N[C@@H](c3ccccc3)c3ccc(C(C)C)cc3)O[C@H]2C1", "note": "[Compound 162, (2S,4R)-1-[(2R,3aR,6aR)-5-acetyl-hexahydro-2H-furo[2,3-c]pyrrole-2-carbonyl]-4-fluoro-N-[(S)-phenyl[4-(propan-2-yl)phenyl]methyl]pyrrolidine-2-carboxamide]", "values": [{"measurement": "IC50", "setting": "[1]", "value": 136, "unit": "nM"}, {"measurement": "IC50", "setting": "[2]", "value": "> 100", "unit": "µM"}]}, {"compound": "CC(=O)N1CC2(CCC(C(=O)N3C[C@H](F)C[C@H]3C(=O)N[C@@H](c3ccccc3)c3ccc(C(C)C)cc3)O2)C1", "note": "(stereo partly drawn) [Compound 163, (2S,4R)-1-{2-acetyl-5-oxa-2-azaspiro[3.4]octane-6-carbonyl}-4-fluoro-N-[(S)-phenyl[4-(propan-2-yl)phenyl]methyl]pyrrolidine-2-carboxamide]", "values": [{"measurement": "IC50", "setting": "[1]", "value": 135, "unit": "nM"}, {"measurement": "IC50", "setting": "[2]", "value": "> 100", "unit": "µM"}]}, {"compound": "CC(=O)N1CCCC(C(=O)N2C[C@H](F)C[C@H]2C(=O)N[C@@H](c2ccccc2)c2ccc(C(C)C)cc2)CC1", "note": "(stereo partly drawn) [Compound 169, (2S,4R)-1-(1-acetylazepane-4-carbonyl)-4-fluoro-N-[(S)-phenyl[4-(propan-2-yl)phenyl]methyl]pyrrolidine-2-carboxamide]", "values": [{"measurement": "IC50", "setting": "[1]", "value": 91, "unit": "nM"}, {"measurement": "IC50", "setting": "[2]", "value": "> 100", "unit": "µM"}]}, {"compound": "CC(=O)N1CCC[C@@H](CC(=O)N2C[C@H](F)C[C@H]2C(=O)N[C@@H](c2ccccc2)c2ccc(C(C)C)cc2)C1", "note": "[Compound 171, (2S,4R)-1-{2-[(3S)-1-acetylpiperidin-3-yl]acetyl}-4-fluoro-N-[(S)-phenyl[4-(propan-2-yl)phenyl]methyl]pyrrolidine-2-carboxamide]", "values": [{"measurement": "IC50", "setting": "[1]", "value": 97, "unit": "nM"}, {"measurement": "IC50", "setting": "[2]", "value": "> 100", "unit": "µM"}]}, {"compound": "CC(=O)N1CCCC1CCC(=O)N1C[C@H](F)C[C@H]1C(=O)N[C@@H](c1ccccc1)c1ccc(C(C)C)cc1", "note": "(stereo partly drawn) [Compound 172, (2S,4R)-1-[3-(1-acetylpyrrolidin-2-yl)propanoyl]-4-fluoro-N-[(S)-phenyl[4-(propan-2-yl)phenyl]methyl]pyrrolidine-2-carboxamide]", "values": [{"measurement": "IC50", "setting": "[1]", "value": 255, "unit": "nM"}, {"measurement": "IC50", "setting": "[2]", "value": "> 100", "unit": "µM"}]}, {"compound": "CC(=O)N1CCC2(CC1)CC2C(=O)N1C[C@H](F)C[C@H]1C(=O)N[C@@H](c1ccccc1)c1ccc(C(C)C)cc1", "note": "(stereo partly drawn) [Compound 174, (2S,4R)-1-{6-acetyl-6-azaspiro[2.5]octane-1-carbonyl}-4-fluoro-N-[(S)-phenyl[4-(propan-2-yl)phenyl]methyl]pyrrolidine-2-carboxamide]", "values": [{"measurement": "IC50", "setting": "[1]", "value": 179, "unit": "nM"}, {"measurement": "IC50", "setting": "[2]", "value": "> 100", "unit": "µM"}]}, {"compound": "CC(=O)N1CCC(C(C)C(=O)N2C[C@H](F)C[C@H]2C(=O)N[C@@H](c2ccccc2)c2ccc(C(C)C)cc2)CC1", "note": "(stereo partly drawn) [Compound 180, (2S,4R)-1-[2-(1-acetylpiperidin-4-yl)propanoyl]-4-fluoro-N-[(S)-phenyl[4-(propan-2-yl)phenyl]methyl]pyrrolidine-2-carboxamide]", "values": [{"measurement": "IC50", "setting": "[1]", "value": 235, "unit": "nM"}, {"measurement": "IC50", "setting": "[2]", "value": "> 100", "unit": "µM"}]}, {"compound": "CC(C)c1ccc([C@@H](NC(=O)[C@@H]2C[C@@H](F)CN2C(=O)C(O)C(C)C)c2ccccc2)cc1", "note": "(stereo partly drawn) [Compound 185, (2S,4R)-4-fluoro-1-(2-hydroxy-3-methylbutanoyl)-N-[(S)-phenyl[4-(propan-2-yl)phenyl]methyl]pyrrolidine-2-carboxamide]", "values": [{"measurement": "IC50", "setting": "[1]", "value": 26, "unit": "nM"}, {"measurement": "IC50", "setting": "[2]", "value": "> 100", "unit": "µM"}]}, {"compound": "CC(C)c1ccc([C@@H](NC(=O)[C@@H]2C[C@@H](F)CN2C(=O)CNC(=O)C(F)(F)F)c2ccccc2)cc1", "note": "[Compound 187, (2S,4R)-4-fluoro-N-[(S)-phenyl[4-(propan-2-yl)phenyl]methyl]-1-[2-(2,2,2-trifluoroacetamido)acetyl] pyrrolidine-2-carboxamide]", "values": [{"measurement": "IC50", "setting": "[1]", "value": 73, "unit": "nM"}, {"measurement": "IC50", "setting": "[2]", "value": "> 100", "unit": "µM"}]}, {"compound": "CC(C)c1ccc([C@@H](NC(=O)[C@@H]2C[C@@H](F)CN2C(=O)CC#N)c2ccccc2)cc1", "note": "[Compound 188, (2S,4R)-1-(2-cyanoacetyl)-4-fluoro-N-[(S)-phenyl[4-(propan-2-yl)phenyl]methyl]pyrrolidine-2-carboxamide]", "values": [{"measurement": "IC50", "setting": "[1]", "value": 237, "unit": "nM"}, {"measurement": "IC50", "setting": "[2]", "value": "> 100", "unit": "µM"}]}, {"compound": "CC(=O)N(CC(N)=O)CC(=O)N1C[C@H](F)C[C@H]1C(=O)N[C@@H](c1ccccc1)c1ccc(C(C)C)cc1", "note": "[Compound 189, (2S,4R)-1-{2-[N-(carbamoylmethyl)acetamido]acetyl}-4-fluoro-N-[(S)-phenyl[4-(propan-2-yl)phenyl]methyl]pyrrolidine-2-carboxamide]", "values": [{"measurement": "IC50", "setting": "[1]", "value": 95, "unit": "nM"}, {"measurement": "IC50", "setting": "[2]", "value": "> 100", "unit": "µM"}]}, {"compound": "CC(=O)NCCC(=O)N1C[C@H](F)C[C@H]1C(=O)N[C@@H](c1ccccc1)c1ccc(C(C)C)cc1", "note": "[Compound 190, (2S,4R)-1-(3-acetamidopropanoyl)-4-fluoro-N-[(S)-phenyl[4-(propan-2-yl)phenyl]methyl]pyrrolidine-2-carboxamide]", "values": [{"measurement": "IC50", "setting": "[1]", "value": 220, "unit": "nM"}, {"measurement": "IC50", "setting": "[2]", "value": "> 100", "unit": "µM"}]}, {"compound": "CC(=O)NCCCC(=O)N1C[C@H](F)C[C@H]1C(=O)N[C@@H](c1ccccc1)c1ccc(C(C)C)cc1", "note": "[Compound 191, (2S,4R)-1-(4-acetamidobutanoyl)-4-fluoro-N-[(S)-phenyl[4-(propan-2-yl)phenyl]methyl]pyrrolidine-2-carboxamide]", "values": [{"measurement": "IC50", "setting": "[1]", "value": 131, "unit": "nM"}, {"measurement": "IC50", "setting": "[2]", "value": "> 100", "unit": "µM"}]}, {"compound": "CC(C)c1ccc([C@@H](NC(=O)[C@@H]2C[C@@H](F)CN2C(=O)CN2CCCC2=O)c2ccccc2)cc1", "note": "[Compound 192, (2S,4R)-4-fluoro-1-[2-(2-oxopyrrolidin-1-yl)acetyl]-N-[(S)-phenyl[4-(propan-2-yl)phenyl]methyl]pyrrolidine-2-carboxamide]", "values": [{"measurement": "IC50", "setting": "[1]", "value": 76, "unit": "nM"}, {"measurement": "IC50", "setting": "[2]", "value": "> 100", "unit": "µM"}]}]}
